# Source: ChEMBL document CHEMBL4364241, “Developments in the anticancer activity of structurally modified curcumin: An up-to-date review” (Eur J Med Chem, 2019)
# How the values were obtained:
# MCF7 [1] = test: Cytotoxicity against human MCF7 Cells after 48 hrs by neutral red dye-based assay; assay type: functional, cell-based; details: MCF7, 48 h
# [2] = Cytotoxicity against human CCD-1059SK Cells after 48 hrs by MTS assay; assay type: functional
# MCF7 [3] = test: Cytotoxicity against human MCF7 Cells after 48 hrs by MTS assay; assay type: functional, cell-based; details: MCF7, 48 h
# [4] = Cytotoxicity against mitoxantrone resistant […] cells expressing BCRP after 15 mins by fluorescence assay; assay type: functional, cell-based; details: Canis lupus familiaris, MDCK2, 0.25 h
# GES1 = test: Cytotoxicity against human GES-1 cells; assay type: functional, cell-based
# MGC-803 [5] = test: Cytotoxicity against human MGC803 cells; assay type: functional, cell-based
# BGC-823 [6] = test: Cytotoxicity against human BGC823 cells; assay type: functional, cell-based
# SGC-7901 [7] = test: Cytotoxicity against human SGC7901 cells; assay type: functional, cell-based
# MDA-MB-231 = test: Anticancer activity against human MDA-MB-231 cells after 72 hrs by MTT assay; assay type: functional, cell-based; details: MDA-MB-231, 72 h
# [8] = Anticancer activity against human LX2 cells after 72 hrs by MTT assay; assay type: functional, cell-based; details: LX-2, 72 h
# SMMC-7721 = test: Anticancer activity against human SMMC7721 cells after 72 hrs by MTT assay; assay type: functional, cell-based; details: SMMC-7721, 72 h
# HepG2 [9] = test: Cytotoxicity against human HepG2 Cells after 72 hrs by MTT assay; assay type: functional, cell-based; details: HepG2, 72 h
# HeLa = test: Anticancer activity against human HeLa cells; assay type: functional, cell-based
# HepG2 [10] = test: Cytotoxicity against human HepG2 Cells by MTT/Trypan Blue Exclusion Assay; assay type: functional, cell-based
# SK-OV-3 = test: Cytotoxicity against human SKOV3 Cells after 48 hrs by Cell Titer Blue assay; assay type: functional, cell-based; details: SK-OV-3, 48 h
# HEp-2 = test: Cytotoxicity against human Hep2 Cells; assay type: functional, cell-based
# L02 = test: Cytotoxicity against human HL-7702 cells; assay type: functional, cell-based
# HT-29 = test: Cytotoxicity against human HT-29 Cells after 72 hrs by MTT assay; assay type: functional, cell-based; details: HT-29, 72 h
# CHO-K1 = test: Cytotoxicity against […] Cells after 72 hrs by MTT assay; assay type: functional, cell-based; details: Cricetulus griseus, CHO-K1, 72 h
# EA.hy 926 = test: Cytotoxicity against human EAhy926 Cells after 72 hrs by MTT assay; assay type: functional, cell-based; details: EA.hy 926, 72 h
# Caco-2 = test: Cytotoxicity against human Caco2 Cells after 72 hrs by MTT assay; assay type: functional, cell-based; details: Caco-2, 72 h
# [11] = Cytotoxicity against human GBM6 Cells 48 hrs by MTS assay; assay type: functional; details: GBM6, 48 h
# U373 MG = test: Cytotoxicity against human U373MG Cells 48 hrs by MTS assay; assay type: functional, cell-based, U-373MG ATCC
# U-251 = test: Cytotoxicity against human U251MG cells after 48 hrs by MTS assay; assay type: functional, cell-based; details: U-251, 48 h
# [12] = Cytotoxicity against human GBM3 Cells 48 hrs by MTS assay; assay type: functional; details: GBM3, 48 h
# [13] = Cytotoxicity against human GBM2 Cells 48 hrs by MTS assay; assay type: functional; details: GBM2, 48 h
# [14] = Cytotoxicity against human GBM5 Cells 48 hrs by MTS assay; assay type: functional
# [15] = Cytotoxicity against human GBM4 Cells 48 hrs by MTS assay; assay type: functional
# [16] = Cytotoxicity against human GBM1 Cells 48 hrs by MTS assay; assay type: functional; details: GBM1, 48 h
# U-87 MG = test: Cytotoxicity against human U87MG Cells 48 hrs by MTS assay; assay type: functional, cell-based, U-87MG ATCC
# DU-145 = test: Anticancer activity against human DU145 cells; assay type: functional, cell-based
# BGC-823 [17] = test: Antiproliferative activity against human BGC823 cells after 24 hrs by MTT assay; assay type: functional, cell-based; details: BGC-823, 24 h
# MGC-803 [18] = test: Antiproliferative activity against human MGC803 cells after 24 hrs by MTT assay; assay type: functional, cell-based; details: MGC-803, 24 h
# PC-3 = test: Anticancer activity against human PC3 cells; assay type: functional, cell-based
# SGC-7901 [19] = test: Antiproliferative activity against human SGC7901 cells after 24 hrs by MTT assay; assay type: functional, cell-based; details: SGC-7901, 24 h
# HCT-116 [20] = test: Cytotoxicity against human HCT116 Cells; assay type: functional, cell-based
# SW-620 = test: Cytotoxicity against human SW620 Cells; assay type: functional, cell-based
# CT26 = test: Cytotoxicity against mouse CT26 cells; assay type: functional, cell-based
# HCT-116 [21] = test: Antitumor activity against human HCT116 cells after 72 hrs by FMCA method; assay type: functional, cell-based; details: HCT-116, 72 h, pooled result: one value given for 5 cell lines, strains, targets or settings
# [22] = Cytotoxicity against human LX2 Cells after 48 hrs by MTT assay; assay type: functional; details: LX-2, 48 h
# NIH3T3 = test: Cytotoxicity against mouse 3T3 Cells after 48 hrs by MTT assay; assay type: functional, cell-based; details: NIH3T3, 48 h
# HepG2 [23] = test: Cytotoxicity against human HepG2 Cells after 48 hrs by MTT assay; assay type: functional, cell-based; details: HepG2, 48 h
# MCF7 [24] = test: Cytotoxicity against human MCF7 Cells after 48 hrs by MTT assay; assay type: functional, cell-based; details: MCF7, 48 h
# HSC-4 = test: Cytotoxicity against human HSC4 cells; assay type: functional, cell-based
# HL-60 = test: Cytotoxicity against human HL60 cells; assay type: functional, cell-based
# HSC-3 = test: Cytotoxicity against human HSC3 cells; assay type: functional, cell-based
# HSC-2 = test: Cytotoxicity against human HSC2 cells; assay type: functional, cell-based
# MCF7 [25] = test: Induction of apoptosis in human MCF7 cells; assay type: functional, cell-based
smiles,measurement,setting,value
COc1cc(/C=C/C2=NN(c3nc(/N=C4\CC[C@H]5[C@@H]6CC[C@H]7C[C@@H](OC(C)=O)CC[C@]7(C)[C@H]6CC[C@]45C)cc(=O)[nH]3)C(/C=C/c3ccc(O)c(OC)c3)C2)ccc1O (stereo partly drawn),IC50,MCF7 [1],18 µM
COc1ccc(/C=N/NC(=O)/C=C/c2ccc(O)c(OC)c2)cc1,IC50,[2],158 µM
same,IC50,MCF7 [3],40.5 µM
COc1ccc(OC)c(/C=C2\CNC/C(=C\c3cc(OC)ccc3OC)C2=O)c1,IC50,[4],1.2 µM
COc1ccc(OC)c(/C=C2\CC/C(=C\c3ccc(O)c(OC)c3)C2=O)c1,IC50,GES1,27.3 µM
same,IC50,MGC-803 [5],13.3 µM
same,IC50,BGC-823 [6],4.7 µM
same,IC50,SGC-7901 [7],3.9 µM
COc1cc(/C=C/C(=O)CC(=O)/C=C/c2ccc(OC(=O)C(N)CC[Se]C)c(OC)c2)ccc1O (stereo not drawn),IC50,MDA-MB-231,0.52 µM
same,IC50,[8],0.62 µM
same,IC50,SMMC-7721,0.18 µM
same,IC50,HepG2 [9],0.31 µM
COc1cc(/C=C/C(=O)/C=C(O)/C=C/c2ccc(OCC(=O)NCC(=O)O)c(OC)c2)ccc1OCC(=O)NCC(=O)O,IC50,HeLa,0.5 µM
COc1cc(CCC2=NC(=S)N=C(CCc3ccc(O)c(OC)c3)C2=Cc2coc3c(OC)c4occc4c(OC)c3c2=O)ccc1O,IC50,HepG2 [10],23 µM
CC/C(=C(\c1ccccc1)c1ccc(OCCN(C)C)cc1)c1ccccc1 [TAMOXIFEN],IC50,MCF7 [1],4 µM
COc1ccc(/C=C/C(=O)/C=C(O)/C=C/c2ccc(OC)c(OC)c2)cc1OC,IC50,SK-OV-3,3.51 µM
CCN1C/C(=C\c2cc(OC)c(OC)c(OC)c2)C(=O)/C(=C/c2cc(OC)c(OC)c(OC)c2)C1,IC50,HEp-2,16.6 µM
same,IC50,L02,46.8 µM
O=C(/C=C(O)/C=C/c1c[nH]c2ccccc12)/C=C/c1c[nH]c2ccccc12,IC50,HT-29,11.5 µM
same,IC50,CHO-K1,7.9 µM
same,IC50,EA.hy 926,11.7 µM
same,IC50,Caco-2,3.3 µM
same,IC50,HepG2 [9],10 µM
C=CC(=O)NC(c1ccccc1)C(C(=O)/C=C/c1cccc(O)c1)C(=O)/C=C/c1cccc(O)c1 (stereo not drawn),IC50,[11],2.32 µM
same,IC50,U373 MG,> 5 µM
same,IC50,U-251,0.33 µM
same,IC50,[12],1.45 µM
same,IC50,[13],1.43 µM
same,IC50,[14],0.92 µM
same,IC50,[15],1.26 µM
same,IC50,[16],0.87 µM
same,IC50,U-87 MG,0.38 µM
COc1cc(/C=C/C(=O)/C=C/c2ccccc2[N+](=O)[O-])ccc1O,IC50,DU-145,3.7 µM
same,IC50,BGC-823 [17],3.3 µM
same,IC50,MGC-803 [18],2.7 µM
same,IC50,PC-3,3.5 µM
same,IC50,SGC-7901 [19],4.3 µM
same,IC50,HCT-116 [20],2.2 µM
same,IC50,SW-620,2.8 µM
same,IC50,CT26,1.6 µM
CCCOc1ccc(/C=C2\CN(C(=S)c3ccccc3)C/C(=C\c3ccc(OCCC)c(OC)c3)C2=O)cc1OC,IC50,HCT-116 [21],0.207 µM
COc1ccc(/C=C/C(=O)Oc2ccc(/C=C/C(=O)CC(=O)/C=C/c3ccc(OC(=O)/C=C/c4ccc(OC)c(O)c4)c(OC)c3)cc2OC)cc1O,IC50,[22],0.63 µM
same,IC50,NIH3T3,0.79 µM
same,IC50,HepG2 [23],0.58 µM
same,IC50,MCF7 [24],0.51 µM
O=C(/C=C(O)/C=C/c1cccnc1)/C=C/c1cccnc1,IC50,HT-29,8.2 µM
same,IC50,CHO-K1,7.2 µM
same,IC50,EA.hy 926,7.9 µM
same,IC50,Caco-2,6.9 µM
same,IC50,HepG2 [9],8.3 µM
CN1CCC(Cc2ccc(/C=C/C(=O)/C=C/c3ccc(CN4CCN(C)CC4)c(O)c3)cc2O)CC1,IC50,HSC-4,3 µM
same,IC50,HL-60,1.8 µM
same,IC50,HSC-3,3 µM
same,IC50,HSC-2,3.9 µM
COc1cc(/C=C/C(=O)N/N=C/c2ccc(O)c(OC)c2)ccc1O,IC50,[2],74.6 µM
same,IC50,MCF7 [3],43 µM
COc1cc(/C=C/C(=O)C(=CC2CCN(C(=O)OC(C)(C)C)CC2)C(=O)/C=C/c2ccc(O)c(OC)c2)ccc1O,IC50,MCF7 [25],1.5 µM
COc1cc(F)c(/C=C2\CNC/C(=C\c3cc(OC)c(OC)cc3F)C2=O)cc1OC,IC50,[4],5.2 µM
